# Reference: US20080200489A1, “Combination of Organic Compounds” (priority 2005, published 2008)
# How the values were obtained:
# Bcr-AblT315I = test: Western analyses of Bcr-Abl levels, BaF3/Bcr-AblT315I cells; type: cell-based, mouse
# Bcr-Abl [1] = test: Western analyses of Bcr-Abl levels, BaF3/Bcr-Abl cells; type: cell-based, mouse
# K562 cells = test: Apoptosis assessment by annexin V staining, K562 cells; type: cell-based, human; settings: for apoptosis of K562 cells: agent alone
# Method: (§1) Cell lines and cell culture: Bcr-Abl-expressing, CML LAMA-84 and K562 cells are obtained from American Tissue Culture Collection (Manassas, Va.) and maintained in culture in RPMI medium containing 10% fetal bovine serum and passaged twice a week. Mouse pro-B BaF3 cells are cultured in complete RPMI-1640 media supplemented with 10% WEHI medium as the source of IL-3. For the studies described herein, logarithmically growing cells are exposed to the designated concentrations of Compound (II) and/or Compound (V). Following these treatments, cells or cell pellets are washed free of the drug(s) prior to the performance of the studies. Apoptosis assessment by annexin V staining: Untreated and drug-treated cells are stained with annexin V and PI, and the percentage of apoptotic cells is determined by flow cytometry. Analysis of synergism between Compound (II) and Compound (V) in inducing apoptosis of K562 and LAMA-84 cells is performed by Median Dose-Effect analysis of Chou and Talalay using the commercially-available software (Calcusyn; Biosoft, Ferguson, Mo.).
# LAMA-84 cells = test: Apoptosis assessment by annexin V staining, LAMA-84 cells; type: cell-based, human; settings: for apoptosis of LAMA-84 cells: agent alone
# Method: as §1
# [2] = tested on: primary, imatinib-resistant CML cells; test: Loss of viability / apoptosis of primary imatinib-resistant CML-BC cells; type: cell-based, human; settings: for sensitivity of sample 7: Compound (II) at lower concentrations; for apoptosis of cells: sample no. 9 (Bcr-AblT315I)
# Method: Primary CML-BC cells and NBMCs: […] Additionally, NBMCs are harvested and purified. Informed consents are signed by all patients to allow use of their cells for these experiments, as part of a clinical protocol approved by the University of South Florida Institutional Review Board (IRB). Sequencing of Bcr-Abl in CML-BC cells: […] Total RNA (5 μg) is reverse transcribed with a first-strand cDNA synthesis kit (Invitrogen). Reverse transcribed cDNAs are used in polymerase chain reaction (PCR) amplifications to amplify a fragment of Bcr-Abl that included the Bcr junction region and the c-Abl kinase region. The amplified sequences are agarose gel-purified and cloned into pCR4-TOPO plasmid. The resulting plasmids are transformed into Escherichia coli Mach1 cells (Invitrogen) overnight at 37° C. Ten colonies for each sample are checked by colony PCR and subcultured for plasmid isolation. Isolated plasmids are sequence verified with T3 and T7 primers for c-Abl kinase domain mutations. Assessment of percentage of non-viable cells: Cells are stained with trypan blue (Sigma, St Louis, Mo.). […] Apoptosis assessment by annexin V staining: Untreated and drug-treated cells are stained with annexin V and PI, and the percentage of apoptotic cells is determined by flow cytometry. Analysis of synergism between Compound (II) and Compound (V) in inducing apoptosis of K562 and LAMA-84 cells is performed by Median Dose-Effect analysis of Chou and Talalay using the commercially-available software (Calcusyn; Biosoft, Ferguson, Mo.).
# NBMCs = test: Loss of survival of NBMCs; type: cell-based; settings: for loss of survival of NBMCs: 48 hours, mean of 2 samples
# Text: Primary CML-BC cells and NBMCs: Leukemia cells from the peripheral blood and/or bone marrow of 10 patients who had met the clinical criteria of imatinib-resistant Ph chromosome-positive CML-BC (Imatinib-resistant Philadelphia chromosome-positive chromic myeloid leukaemia-blast crisis) are harvested and purified. Additionally, NBMCs are harvested and purified. Informed consents are signed by all patients to allow use of their cells for these experiments, as part of a clinical protocol approved by the University of South Florida Institutional Review Board (IRB).
# Assessment of percentage of non-viable cells: Cells are stained with trypan blue (Sigma, St Louis, Mo.).
# BaF3/Bcr-AblT315I cells = test: Apoptosis of BaF3 cells expressing Bcr-AblT315I; type: cell-based, mouse
# Method: Mouse pro-B BaF3 cells are cultured in complete RPMI-1640 media supplemented with 10% WEHI medium as the source of IL-3. […] Following these treatments, cells or cell pellets are washed free of the drug(s) prior to the performance of the studies.
# Site-directed mutagenesis and nucleofection: Three p210 Bcr-Abl constructs are used in the current studies. The p210 Bcr-Abl WT and p210 Bcr-Abl (T315I) constructs are generated. […] For nucleofection of the p210 Bcr-Abl constructs into BaF3 cells, 5 million BaF3 cells in 100 μL Nucleofector solution V (Amaxa, Gaithersburg, Md.) are mixed with 5 μg p210 Bcr-Abl WT, p210 Bcr-Abl (T315I), or p210 Bcr-Abl (E255K) in a cuvette and nucleofected using program G-16. Following nucleofection, the cells are incubated at a concentration of 1×10^6 cells/mL in complete RPMI-1640 media supplemented with 10% WEHI medium as the source of IL-3, overnight, to recover. Stable transfectants of BaF3 cells expressing the WT or mutant form of Bcr-Abl (i.e., T315I or E255K) are maintained in RPMI 1640 supplemented with 10% serum, 1.0 U/mL penicillin, 1 μg/mL streptomycin and 0.75 mg/mL G418. Stably expressing cells are then further selected by removal of IL-3. After confirmation of Bcr-Abl expression by immunoblot analysis, cells are used for the studies described herein.
# Bcr-AblE255K = test: Western analyses of Bcr-Abl levels, BaF3/Bcr-AblE255K cells; type: cell-based, mouse
# Bcr-Abl [3] = test: Western/immunoblot analyses of Bcr-Abl and downstream signaling proteins, LAMA-84 cells; type: cell-based, human; settings: agent alone
# Method: (§2) Cell lines and cell culture: Bcr-Abl-expressing, CML LAMA-84 and K562 cells are obtained from American Tissue Culture Collection (Manassas, Va.) and maintained in culture in RPMI medium containing 10% fetal bovine serum and passaged twice a week. […] Following these treatments, cells or cell pellets are washed free of the drug(s) prior to the performance of the studies.
# (§3) Western analyses of proteins: Western analyses are performed using specific antisera or monoclonal antibodies according to previously reported protocols, and the horizontal scanning densitometry is performed on Western blots.
# Immunoprecipitation of Bcr-Abl and immunoblot analyses: Following the designated drug treatments, cells are lysed in lysis buffer (20 mM Tris [pH 8], […] sodium chloride, 1% NP40, 0.1 M sodium fluoride, 1 mM PMSF, 1 mM sodium orthovanadate, 2.5 μg/mL leupeptin, 5 μg/mL aprotinin) for 30 minutes on ice, and the nuclear and cellular debris is cleared by centrifugation. Cell lysates (200 μg) are incubated with the Abl-specific monoclonal antibody for 1 hour at 4° C. To this, washed Protein G agarose beads are added and incubated overnight at 4° C. The immunoprecipitates are washed 3 times in the lysis buffer, and proteins are eluted with the SDS sample loading buffer prior to the immunoblot analyses with specific antibodies against anti-Abl or antiphosphotyrosine antibody.
# Bcr-Abl [4] = test: Western blot analyses of total cell lysates of primary CML cells; type: cell-based, human; settings: sample 9; 1000 nM alone
# Method: Additionally, NBMCs are harvested and purified. Informed consents are signed by all patients to allow use of their cells for these experiments, as part of a clinical protocol approved by the University of South Florida Institutional Review Board (IRB).
# as §3
# BaF3/Bcr-AblE255K cells = test: Apoptosis of BaF3 cells expressing Bcr-AblE255K; type: cell-based, mouse
# Text: as §2
# (§4) Site-directed mutagenesis and nucleofection: Three p210 Bcr-Abl constructs are used in the current studies. The p210 Bcr-Abl WT and p210 Bcr-Abl (T315I) constructs are generated. […] For nucleofection of the p210 Bcr-Abl constructs into BaF3 cells, 5 million BaF3 cells in 100 μL Nucleofector solution V (Amaxa, Gaithersburg, Md.) are mixed with 5 μg p210 Bcr-Abl WT, p210 Bcr-Abl (T315I), or p210 Bcr-Abl (E255K) in a cuvette and nucleofected using program G-16. […] Stably expressing cells are then further selected by removal of IL-3. After confirmation of Bcr-Abl expression by immunoblot analysis, cells are used for the studies described herein.
# (§5) Apoptosis assessment by annexin V staining: Untreated and drug-treated cells are stained with annexin V and PI, and the percentage of apoptotic cells is determined by flow cytometry.
# BaF3/Bcr-Abl cells = test: Apoptosis of BaF3 cells expressing unmutated Bcr-Abl; type: cell-based, mouse; settings: agent alone
# Text: as §2, §4, §5
# [5] = any of the levels tested, alone
structure (smiles),measurement,setting,value
"Cc1[nH]c2ccccc2c1CCNCc1ccc(/C=C/C(=O)NO)cc1 [Compound (V), N-hydroxy-3-[4-[[[2-(2-methyl-1H-indol-3-yl)-ethyl]-amino]methyl]phenyl]-2E-2-propenamide]",Bcr-Abl levels,"Bcr-AblT315I; 50 nM, 24 hours",lowered
same,Bcr-Abl levels,"Bcr-Abl [1]; 50 nM, 24 hours",lowered
same,apoptosis of K562 cells,K562 cells,dose-dependent manner
same,apoptosis of LAMA-84 cells,LAMA-84 cells,dose-dependent manner
same,sensitivity of sample 7,[2],sensitive
same,apoptosis of cells,[2]; 50 nM alone,42.0%
same,loss of cell viability,"[2]; samples 1 to 7, agent alone",dose dependent
same,cell viability,"[2]; samples 8, 9, and 10 with Bcr-AblT315I mutation, alone, 48 hours, dose-dependent",markedly inhibited
same,loss of survival of NBMCs,NBMCs; 20 nM,13.1%
same,loss of survival of NBMCs,NBMCs; 50 nM,15.9%
same,apoptosis of BaF3/Bcr-Abl T315I cells,"BaF3/Bcr-AblT315I cells; 50 nM, 48 hours",approximately 30%
same,sensitivity of BaF3/Bcr-AblT315I cells to induced apoptosis,BaF3/Bcr-AblT315I cells; agent alone,as sensitive as BaF3/Bcr-Abl cells
same,apoptosis of BaF3/Bcr-Abl T315I cells,BaF3/Bcr-AblT315I cells; levels lower than 50 nM,less effective
same,Bcr-Abl levels,"Bcr-AblE255K; 50 nM, 24 hours",lowered
"Cc1cn(-c2cc(NC(=O)c3ccc(C)c(Nc4nccc(-c5cccnc5)n4)c3)cc(C(F)(F)F)c2)cn1 [Compound (II), 4-methyl-3-[[4-(3-pyridinyl)-2-pyrimidinyl]amino]-N-[5-(4-methyl-1H-imidazol-1-yl)-3-(trifluoromethyl)phenyl]benzamide]",levels of p-CrkL,Bcr-AblT315I; agent alone,did not affect
same,levels of Bcr-Abl,Bcr-AblT315I; [5],did not lower
same,levels of p-CrkL,Bcr-Abl [1]; agent alone,did not affect
same,levels of Bcr-Abl,Bcr-Abl [1]; [5],did not lower
same,expressions of c-Myc and Bcl-xL,Bcr-Abl [3],lowered
same,levels of Bcr-Abl,Bcr-Abl [3],without affecting
same,levels of p-AKT,Bcr-Abl [3],inhibited
same,levels of p-CrkL,Bcr-Abl [3],inhibited
same,levels of p-STAT5,Bcr-Abl [3],attenuated
same,levels of tyrosine phosphorylated Bcr-Abl,Bcr-Abl [3],inhibited
same,p27 levels,Bcr-Abl [3],induction
same,potency in inducing apoptosis relative to imatinib,K562 cells; K562 cells,approximately 10 fold
same,apoptosis of K562 cells,K562 cells,dose-dependent manner
same,potency in inducing apoptosis relative to imatinib,LAMA-84 cells; LAMA-84 cells,approximately 10 fold
same,apoptosis of LAMA-84 cells,LAMA-84 cells,dose-dependent manner
same,"levels of Bcr-Abl, p-CrkL, and p-STAT5",Bcr-Abl [4],little effect
same,apoptosis of BaF3/Bcr-AblE255K cells,BaF3/Bcr-AblE255K cells; 100 nM,ineffective
same,apoptosis of BaF3/Bcr-AblE255K cells,BaF3/Bcr-AblE255K cells; 200 nM,26.0%
same,apoptosis of BaF3/Bcr-AblE255K cells,BaF3/Bcr-AblE255K cells; 500 nM,43.0%
same,sensitivity of sample 7,[2],relatively resistant
same,apoptosis of cells,[2]; 2.0 μM,ineffective
same,loss of cell viability,"[2]; samples 1 to 7, agent alone",dose dependent
same,loss of cell viability,"[2]; samples 8, 9, and 10 with Bcr-AblT315I mutation, Compound (II) alone",did not augment
same,effect against NBMCs,NBMCs; up to 1.0 μM,no effect
same,apoptosis of BaF3/Bcr-Abl cells,BaF3/Bcr-Abl cells,dose-dependent manner
same,apoptosis of BaF3/Bcr-AblT315I cells,"BaF3/Bcr-AblT315I cells; levels as high as 2,000 nM",resistant
same,levels of p-CrkL,Bcr-AblE255K; agent alone,did not affect
same,levels of Bcr-Abl,Bcr-AblE255K; [5],did not lower
